Results as given in US20060148014A1, “Tubulin isotype screening in cancer therapy using hemiasterlin analogs” (priority 2004, published 2006).
Like-named read-outs stand apart in the source and are kept apart here.

Experiments:
[1] = test system: HCC2218 human breast cancer cell line; test: Cell growth inhibition assay (methylene blue), HCC2218; format: cell-based
Text: (§1) The following human breast cancer cell lines were obtained from the ATCC. Cells were maintained according to ATCC-recommended culture conditions. AU565 (ATCC Catalog No. ATCC Catalog. No. CRL-2351), BT-20 (ATCC Catalog No. HTB-19), MCF7 (ATCC Catalog No. HTB22), MDA-MB-231 (ATCC Catalog No. HTB-26), MDA-MB-435 (ATCC Catalog No. HTB-129), MDA-MB-468 (ATCC Catalog No. HTB-132), HCC38 (ATCC Catalog No. CRL-2314), HCC70 (ATCC Catalog No. CRL-2315), HCC1143 (ATCC Catalog No. CRL-2321), HCC1428 (ATCC Catalog No. CRL-2327), HCC1500 (ATCC Catalog No. CRL-2329), HCC1806 (ATCC Catalog No. CRL-2335), HCC1954 (ATCC Catalog No. CRL-2338), HCC2218 (ATCC Catalog No. CRL-2343), UACC-812 (ATCC Catalog No. CRL-1897), UACC-893 (ATCC Catalog No. CRL-1902), ZR-75-1 (ATCC Catalog No. CRL-1500), ZR-75-30 (ATCC Catalog No. CRL-1504).
(§2) Cultured human breast cancer cells were placed in 96-well plates and grown in the continuous presence of test compounds for 4 or 7 days. To expose the cells to test compounds for 7 days, medium was replaced with fresh medium containing compounds after 4 days of exposure and cells were incubated for 3 additional days. Cell growth was assessed using modifications (Amin et al., Cancer Res., 47:6040-6045, 1987; incorporated herein by reference) of a methylene blue-based microculture assay (Finlay et al., Anal. Biochem., 139:272-277, 1984; incorporated herein by reference).
(§3) To investigate the possible expression of PgP by the cell lines used in this study, the antiproliferative effects of paclitaxel were determined in the presence and absence of verapamil, a known inhibitor of PgP.

[2] = test system: HCC1806 human breast cancer cell line; test: Cell growth inhibition assay (methylene blue), HCC1806; format: cell-based
Text: as §1, §2, §3

[3] = test system: AU565 human breast cancer cell line; test: Cell growth inhibition assay (methylene blue), AU565; format: cell-based
Text: as §1, §2, §3

[4] = test system: UACC-812 human breast cancer cell line; test: Cell growth inhibition assay (methylene blue), UACC-812; format: cell-based
Text: as §1, §2, §3

[5] = test system: BT-20 human breast cancer cell line; test: Cell growth inhibition assay (methylene blue), BT-20; format: cell-based
Text: as §1, §2, §3

[6] = test system: HCC1500 human breast cancer cell line; test: Cell growth inhibition assay (methylene blue), HCC1500; format: cell-based
Text: as §1, §2, §3

[7] = test system: MDA-MB-231 human breast cancer cell line; test: Cell growth inhibition assay (methylene blue), MDA-MB-231; format: cell-based
Text: as §1, §2, §3

[8] = test system: HCC1954 human breast cancer cell line; test: Cell growth inhibition assay (methylene blue), HCC1954; format: cell-based
Text: as §1, §2, §3

[9] = test system: cells expressing class II β-tubulin; settings: Haber et al. J. Biol. Chem. 1995; cited from earlier work
[10] = test system: UACC-893 human breast cancer cell line; test: Cell growth inhibition assay (methylene blue), UACC-893; format: cell-based
Text: as §1, §2, §3

[11] = test system: MDA-MB-468 human breast cancer cell line; test: Cell growth inhibition assay (methylene blue), MDA-MB-468; format: cell-based
Text: as §1, §2, §3

[12] = test system: HCC1143 human breast cancer cell line; test: Cell growth inhibition assay (methylene blue), HCC1143; format: cell-based
Text: as §1, §2, §3

[13] = test system: HCC1419 human breast cancer cell line; test: Cell growth inhibition assay (methylene blue), HCC1419; format: cell-based
Protocol: as §2, §3

[14] = test system: HCC70 human breast cancer cell line; test: Cell growth inhibition assay (methylene blue), HCC70; format: cell-based
Text: as §1, §2, §3

[15] = test system: ZR-75-1 human breast cancer cell line; test: Cell growth inhibition assay (methylene blue), ZR-75-1; format: cell-based
Text: as §1, §2, §3

[16] = test system: MCF-7 human breast cancer cell line; test: Cell growth inhibition assay (methylene blue), MCF-7; format: cell-based
Text: as §1, §2, §3

[17] = test system: HCC1428 human breast cancer cell line; test: Cell growth inhibition assay (methylene blue), HCC1428; format: cell-based
Text: as §1, §2, §3

[18] = continuous presence of compound 4 or 7 days, at least three experiments, read-out: Average IC50
[19] = +10 μM verapamil (PgP blocker), read-out: Paclitaxel IC50 (+10 μM verapamil)
[20] = no verapamil, read-out: Paclitaxel IC50 (no verapamil)

In the case of `CC(=O)O[C@H]1C(=O)[C@@]2(C)[C@H]([C@H](OC(=O)c3ccccc3)[C@]3(O)C[C@H](OC(=O)[C@H](O)[C@@H](NC(=O)c4ccccc4)c4ccccc4)C(C)=C1C3(C)C)[C@]1(OC(C)=O)CO[C@@H]1C[C@@H]2O` [Paclitaxel, paclitaxel], the IC50 ([1]; HC-2218, continuous presence of compound 4 or 7 days, at least three experiments, read-out: Average IC50) is reported as 6.72 nM, the IC50 ([1]; HCC-2218, +10 μM verapamil (PgP blocker), read-out: Paclitaxel IC50 (+10 μM verapamil)) is reported as 5 nM and the IC50 ([1]; HCC-2218, no verapamil, read-out: Paclitaxel IC50 (no verapamil)) is reported as 5.6 nM. The IC50 ([2]; HCC-1806, +10 μM verapamil (PgP blocker), read-out: Paclitaxel IC50 (+10 μM verapamil)) was 1.9 nM, the IC50 ([2]; HCC-1806, no verapamil, read-out: Paclitaxel IC50 (no verapamil)) was 1.8 nM and the IC50 [2, 18] was 2.1 nM. The IC50 ([3]; AU-565, +10 μM verapamil (PgP blocker), read-out: Paclitaxel IC50 (+10 μM verapamil)) was 4.8 nM, the IC50 ([3]; AU-565, no verapamil, read-out: Paclitaxel IC50 (no verapamil)) was 5.4 nM and the IC50 [3, 18] was 2.5 nM. It also gave an IC50 [4, 19] of 1.9 nM, an IC50 [4, 18] of 1.46 nM and an IC50 [4, 20] of 2.7 nM. For the same compound, the IC50 [5, 19] was 2.7 nM, the IC50 [5, 18] was 2.63 nM and the IC50 [5, 20] was 3.9 nM. It also gave an IC50 ([6]; HCC-1500, +10 μM verapamil (PgP blocker), read-out: Paclitaxel IC50 (+10 μM verapamil)) of 3.2 nM, an IC50 ([6]; HCC-1500, no verapamil, read-out: Paclitaxel IC50 (no verapamil)) of 4.6 nM and an IC50 [6, 18] of 2.48 nM. The IC50 [7, 19] was 5.1 nM, the IC50 [7, 18] was 5.07 nM and the IC50 [7, 20] was 4.9 nM. The IC50 ([8]; HCC-1954, +10 μM verapamil (PgP blocker), read-out: Paclitaxel IC50 (+10 μM verapamil)) was 11.7 nM, the IC50 ([8]; HCC-1954, no verapamil, read-out: Paclitaxel IC50 (no verapamil)) was 11.7 nM and the IC50 [8, 18] was 8.48 nM. For the same compound, the “effectiveness in treating cells expressing class II β-tubulin” value [9] was “not be effective”, the IC50 [10, 19] was 4.1 nM and the IC50 [10, 18] was 2.73 nM. For the same compound, the IC50 [10, 20] was 6.3 nM, the IC50 [11, 19] was 5.4 nM and the IC50 [11, 18] was 4.3 nM. It also gave an IC50 [11, 20] of 5.1 nM, an IC50 ([12]; HCC-1143, +10 μM verapamil (PgP blocker), read-out: Paclitaxel IC50 (+10 μM verapamil)) of 2.9 nM and an IC50 ([12]; HCC-1143, no verapamil, read-out: Paclitaxel IC50 (no verapamil)) of 2.8 nM. For the same compound, the IC50 [12, 18] was 2.11 nM, the IC50 ([13]; HCC-1419, +10 μM verapamil (PgP blocker), read-out: Paclitaxel IC50 (+10 μM verapamil)) was 7 nM and the IC50 ([13]; HCC-1419, no verapamil, read-out: Paclitaxel IC50 (no verapamil)) was 5.2 nM. For the same compound, the IC50 [13, 18] was 5.41 nM, the IC50 ([14]; HCC-70, +10 μM verapamil (PgP blocker), read-out: Paclitaxel IC50 (+10 μM verapamil)) was 1.9 nM and the IC50 ([14]; HCC-70, no verapamil, read-out: Paclitaxel IC50 (no verapamil)) was 2 nM. It also gave an IC50 [14, 18] of 2.25 nM, an IC50 [15, 19] of 5.9 nM and an IC50 [15, 18] of 3.35 nM. It also gave an IC50 [15, 20] of 5.3 nM, an IC50 ([16]; MCF7, +10 μM verapamil (PgP blocker), read-out: Paclitaxel IC50 (+10 μM verapamil)) of 2.7 nM and an IC50 ([16]; MCF7, continuous presence of compound 4 or 7 days, at least three experiments, read-out: Average IC50) of 2.31 nM. For the same compound, the IC50 ([16]; MCF7, no verapamil, read-out: Paclitaxel IC50 (no verapamil)) was 3.3 nM, the IC50 ([17]; HCC-1428, +10 μM verapamil (PgP blocker), read-out: Paclitaxel IC50 (+10 μM verapamil)) was 9.5 nM and the IC50 ([17]; HCC-1428, no verapamil, read-out: Paclitaxel IC50 (no verapamil)) was 9 nM. The IC50 [17, 18] was 5.03 nM.
